According to ChEMBL document CHEMBL2203178, “Design and one-pot synthesis of new 7-acyl camptothecin derivatives as potent cytotoxic agents” (Bioorg Med Chem Lett, 2012):

What was measured:
Assay type in all cases: functional, cell-based
A549 = test: Cytotoxicity against human A549 cells by SRB assay
KB = test: Cytotoxicity against human KB cells by SRB assay
DU-145 = test: Cytotoxicity against human DU145 cells by SRB assay
[1] = Cytotoxicity against human KBVIN cells by SRB assay

Question: With CC[C@@]1(O)C(=O)OCc2c1cc1n(c2=O)Cc2c-1nc1ccccc1c2C(=O)c1ccoc1 as the molecule, how does the IC50 (A549) read?
Answer: 2.02 µM

Question: What about the IC50 (KB) of the same molecule?
Answer: 2.73 µM

Question: And the IC50 (DU-145)?
Answer: 2.01 µM

Question: What about the IC50 [1] of the same molecule?
Answer: 1.8 µM

Question: What does the source list for CC[C@@]1(O)C(=O)OCc2c1cc1n(c2=O)Cc2c-1nc1ccccc1c2C(=O)c1ccc(C)c(O)c1?
Answer: IC50 (A549): 1.02 µM; IC50 (KB): 1.73 µM; IC50 (DU-145): 1.54 µM; IC50 [1]: 1.14 µM

Question: With CC[C@@]1(O)C(=O)OCc2c1cc1n(c2=O)Cc2c-1nc1ccccc1c2C(=O)c1ccc2c(c1)OCO2 as the molecule, how does the IC50 (A549) read?
Answer: 1.13 µM

Question: And the IC50 (KB)?
Answer: 11.8 µM

Question: What about the IC50 (DU-145) of the same molecule?
Answer: 2.6 µM

Question: And the IC50 [1]?
Answer: 1.77 µM

Question: For CC[C@@]1(O)C(=O)OCc2c1cc1n(c2=O)Cc2c-1nc1ccccc1c2C(=O)c1ccc(C)c(C)c1, which IC50 (A549) is on record?
Answer: 1 µM

Question: And the IC50 (KB)?
Answer: 2.49 µM

Question: And the IC50 (DU-145)?
Answer: 1.7 µM

Question: What about the IC50 [1] of the same molecule?
Answer: 4.62 µM

Question: What does the source list for CC[C@@]1(O)C(=O)OCc2c1cc1n(c2=O)Cc2c-1nc1ccccc1c2C(=O)c1ccccc1?
Answer: IC50 (A549): 11 µM; IC50 (KB): 13.3 µM; IC50 (DU-145): 11 µM; IC50 [1]: 11.9 µM

Question: Which results are given for CC[C@@]1(O)C(=O)OCc2c1cc1n(c2=O)Cc2c-1nc1ccccc1c2C(C)=O?
Answer: IC50 (A549): 0.0154 µM; IC50 (KB): 0.0233 µM; IC50 (DU-145): 0.0402 µM; IC50 [1]: 0.131 µM

Question: Which IC50 (DU-145) does the source give for CC[C@@]1(O)C(=O)OCc2c1cc1n(c2=O)Cc2cc3ccccc3nc2-1 [CAMPTOTHECIN] here?
Answer: 0.0287 µM

Question: For CC[C@@]1(O)C(=O)OCc2c1cc1n(c2=O)Cc2c-1nc1ccccc1c2C(=O)c1ccc(Cl)cc1, which IC50 (A549) is on record?
Answer: 0.949 µM

Question: What about the IC50 (KB) of the same molecule?
Answer: 3.07 µM

Question: And the IC50 (DU-145)?
Answer: 1.68 µM

Question: And the IC50 [1]?
Answer: 1.12 µM

Question: With CC[C@@]1(O)C(=O)OCc2c1cc1n(c2=O)Cc2c-1nc1ccccc1c2C(=O)c1cc(OC)c(OC)c(OC)c1 as the molecule, how does the IC50 (A549) read?
Answer: 1 µM

Question: And the IC50 (KB)?
Answer: 3.14 µM

Question: What about the IC50 (DU-145) of the same molecule?
Answer: 2.11 µM

Question: And the IC50 [1]?
Answer: 1.17 µM

Question: Which IC50 (A549) does the source give for CCC(=O)c1c2c(nc3ccccc13)-c1cc3c(c(=O)n1C2)COC(=O)[C@]3(O)CC here?
Answer: 0.0317 µM

Question: And the IC50 (KB)?
Answer: 0.0592 µM

Question: And the IC50 (DU-145)?
Answer: 0.0898 µM

Question: What about the IC50 [1] of the same molecule?
Answer: 0.0287 µM

Question: With CC[C@@]1(O)C(=O)OCc2c1cc1n(c2=O)Cc2c-1nc1ccccc1c2C(=O)c1cc(OC)ccc1OC as the molecule, how does the IC50 (A549) read?
Answer: 1.01 µM

Question: What about the IC50 (KB) of the same molecule?
Answer: 2.92 µM

Question: What about the IC50 (DU-145) of the same molecule?
Answer: 2.06 µM

Question: And the IC50 [1]?
Answer: 2.25 µM

Question: For CCc1c2c(nc3ccc(OC(=O)N4CCC(N5CCCCC5)CC4)cc13)-c1cc3c(c(=O)n1C2)COC(=O)[C@]3(O)CC [IRINOTECAN], which IC50 (DU-145) is on record?
Answer: 9.3 µM

Question: What about the IC50 [1] of the same molecule?
Answer: > 20 µM

Question: With CC[C@@]1(O)C(=O)OCc2c1cc1n(c2=O)Cc2c-1nc1ccccc1c2C(=O)c1ccc(OC)cc1 as the molecule, how does the IC50 (A549) read?
Answer: 0.911 µM

Question: And the IC50 (KB)?
Answer: 4.78 µM

Question: And the IC50 (DU-145)?
Answer: 1.61 µM

Question: What about the IC50 [1] of the same molecule?
Answer: 3.14 µM

Question: For CC[C@@]1(O)C(=O)OCc2c1cc1n(c2=O)Cc2c-1nc1ccccc1c2C(=O)c1ccc(O)cc1, which IC50 (A549) is on record?
Answer: 2.51 µM

Question: And the IC50 (KB)?
Answer: 12.5 µM

Question: And the IC50 (DU-145)?
Answer: 2.99 µM

Question: And the IC50 [1]?
Answer: 1.79 µM
